Laboratory results reported in patent US20100285000A1, “USE OF VEGFR-2 INHIBITORS FOR TREATING METASTATIC CANCER” (BRISTOL-MYERS SQUIBB COMPANY, priority 2007, published 2010).

How the values were obtained:
[1] = Bhuyan et al. Cancer Res. 42, 3532-3537 (1982); cited from earlier work
[2] = test system: MDA-MB-231 breast cancer cells; experiment: MDA-MB-231 orthotopic model of tumor metastasis (lung metastases after resection of the primary tumor); type: in vivo; conditions: human MDA-MB-231 cells in mouse mammary fat pad, tumors resected day 24, treatment from day 28, IP twice weekly; Comp-I 30 mg/kg, bevacizumab 5 mg/kg; control cohort 84%
Source text: MDA-MB-231 breast tumor cells implanted in mammary fat pad of mice and resultant tumors resected day 24. Drug treatment was initiated on day 28 and mice were sacrificed at 118 days and local regrowth and lung metastases evaluated.
Human MDA-MB-231 breast cancer cells were implanted in the mouse mammary fat pads at day 0 (1×10^6 MDA-MB-231 breast cancer cells). The resultant tumors were resected at day 24 and treatment initiated 4 days later (Mean tumor volume at resection=400 mm^3). Treatment groups were as follows: Control: PBS, Comp-I: 30 mg/kg, and bevacizumab 5 mg/kg (100 μL IP injections twice weekly). When mice were sacrificed, the extent of local regrowth and numbers of lung metastases were evaluated.

Row | Molecule | potency in vitro relative to commonly used anti-cancer drugs (doxorubicin, methotrexate, vincristine) [1] | mice showing lung metastases (incidence of metastases) [2] [%]
1 | COc1c(O)c2c(c3cc(C(=O)N4CCc5c4c(O)c(OC)c4[nH]c(C(=O)N6CC7CC78C6=CC(=O)c6[nH]cc(C)c68)cc54)[nH]c13)CCN2C(N)=O (centres unmarked) [CC-1065] | about 1000 fold | –
2 | bevacizumab | – | 74
